Reference: patent US20230099344A1, “COMPOUNDS AND METHODS FOR THE TARGETED DEGRADATION OF IRAK-4” (Arvinas Operations, Inc., priority 2021, published 2023)

Columns and labels:
Format in all cases: cell-based
IL6 [1] = test: R848 stimulated IL6 inhibition assay in PBMC; details: PBMC, human PBMCs, R848 stimulation, compound overnight, IL6 by MSD after 24 hrs; for Dmax: Homo sapiens, 24 h, read-out: R848 stim IL6 inhibition Dmax; for IC50: read-out: R848 stim IL6 inhibition IC50
Summary of the method: (§1)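 Seed human PBMC, 2.0×10^6 cells/mL → compound overnight → stimulant (IL-1β, LPS or R848) at per-donor EC50 → 24 hrs → media to MSD for IL6/IL8.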

IL6 [2] = test: LPS stimulated IL6 inhibition assay in PBMC; details: Homo sapiens, PBMC, 24 h, human PBMCs, LPS stimulation, compound overnight, IL6 by MSD after 24 hrs; for Dmax: read-out: LPS Stim IL6 inhibition Dmax; for IC50: read-out: LPS stim IL6 inhibition IC50
Summary of the method: as §1

IRAK-4 = biological target: T1, IRAK-4 (Homo sapiens, UniProt Q9NWZ3); test: IRAK-4 ELISA, PBMC degradation; parameters: endogenous in cells; host or cells: PBMC; details: treated overnight
T1 sequence (Q9NWZ3 1-460): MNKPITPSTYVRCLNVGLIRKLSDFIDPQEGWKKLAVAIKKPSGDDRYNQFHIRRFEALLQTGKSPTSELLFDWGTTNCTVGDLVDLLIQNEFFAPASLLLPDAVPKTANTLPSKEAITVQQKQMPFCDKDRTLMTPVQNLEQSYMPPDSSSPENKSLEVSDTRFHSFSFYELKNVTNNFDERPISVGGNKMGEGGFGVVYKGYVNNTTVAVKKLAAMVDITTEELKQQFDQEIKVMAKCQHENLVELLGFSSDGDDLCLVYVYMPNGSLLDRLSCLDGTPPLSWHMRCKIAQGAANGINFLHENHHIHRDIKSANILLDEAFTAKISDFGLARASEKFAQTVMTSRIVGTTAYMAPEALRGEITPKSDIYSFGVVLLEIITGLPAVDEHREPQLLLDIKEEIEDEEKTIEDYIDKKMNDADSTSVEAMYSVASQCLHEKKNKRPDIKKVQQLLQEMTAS
Summary of the method: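 Readout: IRAK-4 protein level in cell lysate, sandwich ELISA. Cells: OCI-Ly10 at 1×10^6/ml or PBMC at 2×10^6/ml, compound added same day, overnight incubation.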

## CC(C)Oc1cc2c(cc1NC(=O)c1cnn3cccnc13)CN(C1CCN(CC3CCN(c4ccc(F)c(C(=O)NC5CCC(=O)NC5=O)c4)CC3)CC1)C2=O (stereo not shown) [Example 303]
IL6 [1]
  Dmax: ≥ 90%
  IC50: 10 to 50 nM
IL6 [2]
  Dmax: 70 to 80%
  IC50: 10 to 50 nM
IRAK-4
  DC50: 5 to 10 nM
  Dmax: 80 to 90%
  PBMC DC90: C (C represents a DC90 value ≥25.0 nM and <50 nM)

## O=C1CCC(NC(=O)c2ccc(N3CCC(CN4CCC(N5Cc6cc(NC(=O)c7cnn8cccnc78)c(OCC(F)F)cc6C5=O)CC4)CC3)cc2F)C(=O)N1 (stereo not shown) [Example 305]
IL6 [1]
  Dmax: < 70%
  IC50: 50 to 100 nM
IL6 [2]
  Dmax: < 70%
  IC50: 10 to 50 nM
IRAK-4
  DC50: 5 to 10 nM
  Dmax: 80 to 90%
  PBMC DC90: C (C represents a DC90 value ≥25.0 nM and <50 nM)

## O=C1CCC(NC(=O)c2cc(N3CC(CN4CCC(n5cc6cc(NC(=O)c7cnn8cccnc78)c(OCC7CC7)cc6n5)CC4)C3)ccc2F)C(=O)N1 (stereo not shown) [Example 306]
IL6 [1]
  Dmax: ≥ 90%
  IC50: ≥ 100 nM
IL6 [2]
  Dmax: 70 to 80%
  IC50: ≥ 100 nM
IRAK-4
  DC50: ≥ 10 nM
  Dmax: 70 to 80%
  PBMC DC90: D (D represents a DC90 value ≥50 nM)

## CC(C)Oc1cc2nn(C3CCN(CC4CN(c5ccc(F)c(C(=O)NC6CCC(=O)NC6=O)c5)C4)CC3)cc2cc1NC(=O)c1cnn2cccnc12 (stereo not shown) [Example 307]
IL6 [1]
  Dmax: 80 to 90%
  IC50: ≥ 100 nM
IL6 [2]
  IC50: ≥ 100 nM
IRAK-4
  DC50: ≥ 10 nM
  PBMC DC90: D (D represents a DC90 value ≥50 nM)

## CC(C)Oc1nc2c(cc1NC(=O)c1cnn3cccnc13)CN(C1CCN(CC3CCN(c4ccc(C(=O)NC5CCC(=O)NC5=O)c(F)c4)CC3)CC1)C2=O (stereo not shown) [Example 309]
IL6 [1]
  Dmax: 80 to 90%
  IC50: 10 to 50 nM
IL6 [2]
  Dmax: < 70%
  IC50: 10 to 50 nM
IRAK-4
  DC50: 1 to 5 nM
  Dmax: ≥ 90%
  PBMC DC90: B (B represents a DC90 value ≥10.0 nM and <25.0 nM)

## O=C1CCC(NC(=O)c2ccc(N3CCC(CN4CCC(N5Cc6cc(NC(=O)c7cnn8cccnc78)c(N7CCC(N8CCC8)CC7)cc6C5=O)CC4)CC3)cc2F)C(=O)N1 (stereo not shown) [Example 310]
IL6 [1]
  Dmax: ≥ 90%
  IC50: 50 to 100 nM
IL6 [2]
  Dmax: 70 to 80%
  IC50: ≥ 100 nM
IRAK-4
  DC50: 1 to 5 nM
  Dmax: ≥ 90%
  PBMC DC90: A (A represents a DC90 value <10.0 nM)

## CC(C)Oc1cc2c(cc1NC(=O)c1cnn3cccnc13)CN(C1CCN(C(C)(C)C3CN(c4ccc(F)c(C(=O)NC5CCC(=O)NC5=O)c4)C3)CC1)C2=O (stereo not shown) [Example 311]
IL6 [1]
  Dmax: ≥ 90%
  IC50: 10 to 50 nM
IL6 [2]
  Dmax: 70 to 80%
  IC50: ≥ 100 nM
IRAK-4
  DC50: 5 to 10 nM
  Dmax: 80 to 90%
  PBMC DC90: D (D represents a DC90 value ≥50 nM)

## CC(C)Oc1cc2c(cc1NC(=O)c1cnn3cccnc13)CN(C1CCN(C(C)(C)C3CN(c4ccc(C(=O)NC5CCC(=O)NC5=O)c(F)c4)C3)CC1)C2=O (stereo not shown) [Example 312]
IL6 [1]
  Dmax: ≥ 90%
  IC50: < 10 nM
IL6 [2]
  Dmax: ≥ 90%
  IC50: 10 to 50 nM
IRAK-4
  DC50: 1 to 5 nM
  Dmax: ≥ 90%
  PBMC DC90: A (A represents a DC90 value <10.0 nM)

## Cn1c(=O)n(C2CCC(=O)NC2=O)c2cccc(N3CC(N(C)[C@H]4CC[C@H](n5cc6cc(NC(=O)c7cnn8cccnc78)c(OCC7CC7)cc6n5)CC4)C3)c21 (stereo partly shown) [Example 346]
IL6 [1]
  Dmax: ≥ 90%
  IC50: 10 to 50 nM
IL6 [2]
  Dmax: 80 to 90%
  IC50: < 10 nM
IRAK-4
  DC50: 1 to 5 nM
  Dmax: 80 to 90%
  PBMC DC90: B (B represents a DC90 value ≥10.0 nM and <25.0 nM)

## O=C1CCC(N2C(=O)c3ccc(N4CCC5(CC4)CN([C@H]4CC[C@H](n6cc7cc(NC(=O)c8cnn9cccnc89)c(OCC8CC8)cc7n6)CC4)C5)cc3C2=O)C(=O)N1 (stereo partly shown) [Example 353]
IL6 [1]
  Dmax: ≥ 90%
  IC50: 10 to 50 nM
IL6 [2]
  Dmax: 70 to 80%
  IC50: 10 to 50 nM
IRAK-4
  DC50: 1 to 5 nM
  Dmax: 80 to 90%
  PBMC DC90: B (B represents a DC90 value ≥10.0 nM and <25.0 nM)

## CN(CC1CCN(c2ccc3c(c2)C(=O)N(C2CCC(=O)NC2=O)C3=O)CC1)[C@H]1CC[C@H](n2cc3cc(NC(=O)c4cnn5cccnc45)c(OCC(F)F)cc3n2)CC1 (stereo partly shown) [Example 357]
IL6 [1]
  Dmax: ≥ 90%
  IC50: < 10 nM
IL6 [2]
  Dmax: ≥ 90%
  IC50: < 10 nM
IRAK-4
  DC50: < 1 nM
  Dmax: 70 to 80%
  PBMC DC90: A (A represents a DC90 value <10.0 nM)

## CN(C1CCN(c2ccc3c(c2)C(=O)N(C2CCC(=O)NC2=O)C3=O)CC1)[C@H]1CC[C@H](n2cc3cc(NC(=O)c4cnn5cccnc45)c(OCC(F)F)cc3n2)CC1 (stereo partly shown) [Example 358]
IL6 [1]
  Dmax: ≥ 90%
  IC50: < 10 nM
IL6 [2]
  Dmax: 70 to 80%
  IC50: < 10 nM
IRAK-4
  DC50: < 1 nM
  Dmax: < 70%
  PBMC DC90: A (A represents a DC90 value <10.0 nM)

## CN(CCN1CCN(c2ccc3c(c2)C(=O)N(C2CCC(=O)NC2=O)C3=O)CC1)[C@H]1CC[C@H](n2cc3cc(NC(=O)c4cnn5cccnc45)c(OCC4CC4)cc3n2)CC1 (stereo partly shown) [Example 359]
IL6 [1]
  Dmax: ≥ 90%
  IC50: < 10 nM
IL6 [2]
  Dmax: 80 to 90%
  IC50: < 10 nM
IRAK-4
  DC50: < 1 nM
  Dmax: 80 to 90%
  PBMC DC90: A (A represents a DC90 value <10.0 nM)

## O=C1CCC(N2C(=O)c3ccc(N4CC5(C4)CN([C@H]4CC[C@H](n6cc7cc(NC(=O)c8cnn9cccnc89)c(OCC8CC8)cc7n6)CC4)C5)cc3C2=O)C(=O)N1 (stereo partly shown) [Example 360]
IL6 [1]
  Dmax: ≥ 90%
  IC50: < 10 nM
IL6 [2]
  Dmax: 80 to 90%
  IC50: < 10 nM
IRAK-4
  DC50: 1 to 5 nM
  Dmax: ≥ 90%
  PBMC DC90: B (B represents a DC90 value ≥10.0 nM and <25.0 nM)

## CN(C1CN(c2ccc3c(c2F)CN(C2CCC(=O)NC2=O)C3=O)C1)[C@H]1CC[C@H](n2cc3cc(NC(=O)c4cnn5cccnc45)c(OCC4CC4)cc3n2)CC1 (stereo partly shown) [Example 361]
IL6 [1]
  Dmax: ≥ 90%
  IC50: < 10 nM
IL6 [2]
  Dmax: 80 to 90%
  IC50: < 10 nM
IRAK-4
  DC50: < 1 nM
  Dmax: ≥ 90%
  PBMC DC90: A (A represents a DC90 value <10.0 nM)

## CN(C1CN(c2ccc3c(c2F)CN(C2CCC(=O)NC2=O)C3=O)C1)[C@H]1CC[C@H](n2cc3cc(NC(=O)c4cnn5cccnc45)c(OCC(F)F)cc3n2)CC1 (stereo partly shown) [Example 362]
IL6 [1]
  Dmax: ≥ 90%
  IC50: < 10 nM
IL6 [2]
  Dmax: 70 to 80%
  IC50: 10 to 50 nM
IRAK-4
  DC50: < 1 nM
  Dmax: ≥ 90%
  PBMC DC90: A (A represents a DC90 value <10.0 nM)

## CN(C1CN(c2ccc3c(c2)CN(C2CCC(=O)NC2=O)C3=O)C1)[C@H]1CC[C@H](n2cc3cc(NC(=O)c4cnn5cccnc45)c(OCC(F)F)cc3n2)CC1 (stereo partly shown) [Example 363]
IL6 [1]
  Dmax: ≥ 90%
  IC50: 10 to 50 nM
IL6 [2]
  Dmax: 70 to 80%
  IC50: 10 to 50 nM
IRAK-4
  DC50: < 1 nM
  Dmax: ≥ 90%
  PBMC DC90: A (A represents a DC90 value <10.0 nM)

## CC(C)Oc1cc2c(cc1NC(=O)c1cnn3cccnc13)CN([C@H]1CC[C@H](N(C)C3CN(c4ccc5c(c4F)CN(C4CCC(=O)NC4=O)C5=O)C3)CC1)C2=O (stereo partly shown) [Example 364]
IL6 [1]
  Dmax: ≥ 90%
  IC50: < 10 nM
IL6 [2]
  Dmax: < 70%
  IC50: 50 to 100 nM
IRAK-4
  DC50: 1 to 5 nM
  Dmax: ≥ 90%
  PBMC DC90: A (A represents a DC90 value <10.0 nM)
